# Data reported in article doi:10.1101/2025.04.14.25325787v4 (medrxiv, 2025).
# Biological target: EGFR kinase domain (Homo sapiens, UniProt P00533)
# Test: SPR
# Assay type: binding
# Sequence of EGFR kinase domain (P00533 704-1016): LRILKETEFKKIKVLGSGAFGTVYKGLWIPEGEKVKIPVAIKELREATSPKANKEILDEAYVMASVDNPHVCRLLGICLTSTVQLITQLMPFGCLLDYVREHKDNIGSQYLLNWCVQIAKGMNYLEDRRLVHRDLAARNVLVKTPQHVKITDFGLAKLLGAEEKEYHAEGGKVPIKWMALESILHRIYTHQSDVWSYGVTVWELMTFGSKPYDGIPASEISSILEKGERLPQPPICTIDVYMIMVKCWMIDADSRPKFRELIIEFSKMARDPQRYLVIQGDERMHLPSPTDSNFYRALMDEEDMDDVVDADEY
structure (smiles),measurement,value
"COc1ccc(CCn2c(=O)c3cc4c(cc3c3ccccc32)OCO4)cc1 [Z5, ZYH005]",Kd,19.6 µM
